Legend:
[1] = test system: Ser40 phosphorylation of Th in MN9D cells; experiment: Th Ser40 phosphorylation in MN9D cells (western blot, P-Ser40/total Th); format: cell-based
Procedure: FIG. 6. PDE2a is an important effector regulating Ser40 phosphorylation in MN9D cells. MN9D cultures were treated with IBMX or BAY-60-7550 (50 μM), a PDE2A-selective inhibitor. Cells were analyzed on western-blot for phosphorylation of Ser40 , total Th, and actin.
FIG. 7. PDE2a is an important effector regulating Ser40 phosphorylation in MN9D cells. BAY-60-7550 dose-curve and representative examples in MN9D (n=9, red) and HEK cells (n=4, blue) (Mean±SEM). Cells were treated with various concentrations of BAY 60-7750 and analyzed for Th phosphorylation on Ser40 , total Th and actin.
FIG. 10. PDE11 is an important effector regulating Ser40 phosphorylation in MN9D cells. BC 11-38 dose-curve and representative examples in MN9D (n=2) (Mean±SEM). IBMX served as a control and was used at 100 μM. Cell were analyzed for phosphorylation of Th on Ser40 and total Th was used as a loading control to determine phosphorylation specific effects.
24 hours prior to the administration of the different compounds, cells were serum-starved with DMEM medium supplemented with L-glutamine and Pen&Strep. Unless otherwise stated, the concentration of the different reagents is reported in Table 1 and the duration of the treatment was 1 hour.
Cells were harvested in 150 μL of Laemmli sample buffer (2% SDS, 10% glycerol, 60 mM Tris-Cl pH 6.8, 0.01% bromophenol blue, 50 mM freshly added DTT). Wells were duplicated in pairs and pooled into the same tubes to minimize variability. Samples were sonicated at maximum potency during 3 minutes, heated at 95° C. for 5 minutes and spun down briefly before loading. Running gels were 10% polyacrylamide except for the GUCY2C detection, which was optimal in 7% gels (375 mM Tris-Cl pH 8.8, 0.1% APS, 0.1% SDS, 0.04% TEMED). Stacking gels were 5% polyacrylamide (125 mM Tris-Cl pH 6.8, 0.1% APS, 0.1% SDS, 0.04% TEMED).
Up to 35 μL of sample was loaded in each slot and run in the presence of tris-glycine buffer and 0.1% SDS. Running conditions were 100 V during the first 20 minutes, followed by 160 V until the migration front reached the bottom of the gel. The transference was performed at 100 V onto 0.2 μm nitrocellulose membranes, in the presence of tris-glycine buffer and 20% methanol. The blotting duration was 140 minutes except for the detection of GUCY2C, which was transferred during 240 minutes in the presence of 0.1% SDS. Membranes were then submerged in Ponceau S solution to check blotting efficiency (0.1% Ponceau S, 5% acetic acid). After several washings with DEMI water, blots were incubated during 1 hour in the presence of 5% milk powder and TBS-T (154 mM NaCl, 49.5 mM Tris-Cl pH 7.4, 0.1% Tween-20). The incubation with the primary antibodies was performed O/N at 4° C. in TBS-T (consult Table 2 for dilution and species). Membranes were rinsed in TBS-T during 1 hour to remove the excess antibody. The incubation with the secondary antibodies took place during 60 minutes at room temperature (1:10,000 dilution in TBS-T, with the exception of the goat secondary which was diluted 1:20,000). Secondary antibodies were fused to the horseradish peroxidase and raised against the host species of the primary antibody. After additional washings during 1 hour, blots were exposed to an enhanced chemiluminescence solution and the signal was detected using an Odyssey imager (LI-COR). Band densitometry was performed with LI-COR Image Studio Lite. For graph quantifications, ‘Fold Change’ represents the ratio P-Ser40/Total Th. Statistical comparisons between pair of groups correspond to unpaired Student's t-tests, as calculated with GraphPad Prism. Asterisks denote the following p-values: *<0.05, **<0.01, ***<0.001, ****<0.0001.
IBMX is a non-selective PDE inhibitor, therefore we investigated the effect of inhibiting a specific PDE selectively on Ser40 phosphorylation. To study the effect of PDE2A inhibition on Ser40 phosphorylation we treated the dopaminergic cell-line MN9D with Bay BAY-60-7550 and analyzed the effects. […]

GUCY2C = GUCY2C (Homo sapiens, UniProt P25092); experiment: GUCY2C ligand analysis in HEK-293 cells transfected with GUCY2C and Th (WES); format: cell-based; set-up: expressed in transfected cells; host or cells: HEK-293 cells transfected with GUCY2C and Th; conditions: 10 μM, Th Ser40 corrected for total Th, n=3
Chain of GUCY2C (P25092 24-1073): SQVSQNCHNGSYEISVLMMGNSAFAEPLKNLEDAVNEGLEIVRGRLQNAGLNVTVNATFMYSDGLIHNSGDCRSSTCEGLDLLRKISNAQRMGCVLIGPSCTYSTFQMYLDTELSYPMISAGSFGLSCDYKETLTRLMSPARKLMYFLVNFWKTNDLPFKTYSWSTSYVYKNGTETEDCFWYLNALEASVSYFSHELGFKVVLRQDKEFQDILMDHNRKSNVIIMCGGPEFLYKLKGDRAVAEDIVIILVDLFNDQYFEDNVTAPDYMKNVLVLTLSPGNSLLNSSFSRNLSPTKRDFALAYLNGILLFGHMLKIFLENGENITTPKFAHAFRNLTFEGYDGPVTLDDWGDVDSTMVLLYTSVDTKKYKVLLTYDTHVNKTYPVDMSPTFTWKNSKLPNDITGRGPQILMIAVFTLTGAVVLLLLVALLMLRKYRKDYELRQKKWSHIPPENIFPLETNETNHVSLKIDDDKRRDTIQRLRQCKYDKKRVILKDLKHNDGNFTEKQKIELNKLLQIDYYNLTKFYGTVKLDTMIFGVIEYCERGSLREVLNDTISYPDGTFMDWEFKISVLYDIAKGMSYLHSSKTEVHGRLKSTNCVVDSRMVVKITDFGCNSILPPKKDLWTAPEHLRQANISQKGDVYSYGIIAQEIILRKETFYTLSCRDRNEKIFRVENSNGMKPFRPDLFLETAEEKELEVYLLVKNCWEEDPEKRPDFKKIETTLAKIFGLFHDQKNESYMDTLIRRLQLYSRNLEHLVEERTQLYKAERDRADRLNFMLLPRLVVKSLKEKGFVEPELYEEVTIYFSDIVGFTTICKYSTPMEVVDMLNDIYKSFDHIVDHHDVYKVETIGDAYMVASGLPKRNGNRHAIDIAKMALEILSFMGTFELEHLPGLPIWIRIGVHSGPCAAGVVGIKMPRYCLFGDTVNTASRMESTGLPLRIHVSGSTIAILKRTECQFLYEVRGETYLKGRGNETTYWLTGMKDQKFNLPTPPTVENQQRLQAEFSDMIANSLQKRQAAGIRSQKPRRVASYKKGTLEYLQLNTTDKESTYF
Procedure: Potential GUCY2C ligands were tested in HEK-293 cells transfected with GUCY2C and Th and subsequently treated and analyzed by automated western (WES). Th Ser40 was corrected for total Th. Controls were set to 1. Significance is determined by two-tailed t-test on n=3. * p<0.05, **p<0.01, ***p<0.005, “”p<0.001. A) Guanylin control 10 μM. B) Peptides 1 to 5 in an amount of 10 μM. C) Peptides 6 to 11 in an amount of 10 μM.
We designed novel peptides with different activities with respect to endogenous GUCY2C ligands (Table 3). The peptides were analyzed in Th and GUCY2C transfected HEK-293 cells and subsequently tested ex-vivo in mice striatal slices. […] We synthezised uroguanylin and heat stable toxin as controls for the synthezised peptides and they thus are from a different source than the commercially available uroguanylin and heat stable toxin. […] Possibly the effects of the peptides can differ depending on the area in the striatum which is stimulated.

Compound	increase in the phosphorylation of Ser40 ([1]; 50 μM)	performance versus IBMX on Ser40 phosphorylation ([1]; IBMX 100 μM as control)	phosphorylation of Th on Ser40 as compared to total Th (in words) ([1]; dose-curve)	IC50 ([1]; n=9, read-out: IC50 in the dopaminergic model (dose-curve of Th Ser40 phosphorylation)) [nM]	Ser40 phosphorylation in HEK-293 cells (significance, in words) (GUCY2C)
COc1ccc(Cc2nn3c([C@@H](CCCc4ccccc4)[C@@H](C)O)nc(C)c3c(=O)[nH]2)cc1OC [BAY 60-7550]	more than 4 fold	performed better than IBMX	clear fold change increase in Ser40 phosphorylation	1000	–
guanylin: natural agonistic ligand of GUCY2C, 15 amino acid polypeptide; commercially available rat/mouse guanylin (Chemcruz) (PNTCEICAYAACTGC) [reference compound]	–	–	–	–	modest, but significant increase

Reference: US20210330736A1 (UNIVERSITEIT VAN AMSTERDAM, priority 2018, published 2021)
